Key:
[1] = test system: patients with pulmonary embolism; conditions: human, in vivo; cited from earlier work
[2] = test system: patients with symptomatic pulmonary embolism with or without symptomatic deep venous thrombosis; experiment: CASSIOPEA (EFC6034) phase III clinical trial: symptomatic recurrent PE/DVT (efficacy); format: in vivo, human; conditions: for Hazard ratio, symptomatic recurrent PE/DVT: idrabiotaparinux vs warfarin
Protocol: Patients with confirmed symptomatic PE with or without acute symptomatic DVT are eligible for this trial. Treatment with a therapeutic dose of any LMWH or UFH or fondaparinux is allowed only within the 36 hours immediately preceding randomization. Randomization is performed as soon as the diagnosis of PE (and DVT if concomitant suspected symptomatic DVT) is confirmed.
(§1) A blinded central and independent adjudication committee (CIAC) assesses PE (and DVT when applicable), all episodes of locally confirmed or doubtful PE/DVT recurrences, clinically relevant bleedings and deaths. Adjudication results are the basis for the final analyses.
Patients in the 3-month stratum have an additional 13-week observational period after cessation of study treatment. Patients in the 6-month stratum have a 13-week up to 26-week observational period.
Injections of SSR126517E (or its placebo) is started 12 h after the last post-randomization enoxaparin administration. SSR126517E (or its placebo) is administered s.c. once-weekly for a period of 3 or 6 months. All patients receive a first 0.5 ml injection (3.0 mg in the SSR126517E group). The following injections are also 0.5 ml, except in patients with severe renal insufficiency (defined as creatinine clearance <30 mL/min), who decrease to a dosage of 0.3 ml (1.8 mg in the SSR126517E group).
The primary efficacy outcome is symptomatic recurrent PE/DVT (fatal or not), as validated by the CIAC, within 99 days for patients from both strata (3- and 6-month treatments).
A secondary efficacy outcome for patients in the 6-month stratum is symptomatic recurrent PE/DVT, as validated by the CIAC, within 190 days.
There are 2 additional efficacy outcomes: • the time to first symptomatic recurrent PE/DVT (fatal or non fatal) within the patient's treatment period, i.e. a combined analysis of the 3-and 6-month strata patients; • the separate components of the efficacy outcomes within 99 days (all patients) and within 190 days (6-month stratum patients only).
The definitions to confirm a suspected symptomatic episode of recurrent PE/DVT are as follows:
Efficacy analyses are performed on the—All-randomized—population (patients with a patient number and an allocated treatment number recorded in the IVRS database).
The secondary efficacy outcome (VTE recurrence within 190 days) for patients in the 6-month stratum is analyzed using the same method and applying the same non-inferiority margin.
Time to first symptomatic recurrent PE/DVT within the patient's study treatment period for all patients is analyzed using Cox's proportional hazards model, stratified on intended treatment duration.

[3] = test system: patients with symptomatic pulmonary embolism with or without symptomatic deep venous thrombosis; experiment: CASSIOPEA (EFC6034) phase III clinical trial: clinically relevant bleeding (safety); format: in vivo, human; conditions: for Hazard ratio, clinically relevant bleeding: idrabiotaparinux vs warfarin
Description: According to the instant invention, the term “bleedings” designates any clinically relevant bleeding (i.e. major or clinically relevant non-major hemorrhage).
According to the instant invention, the term “major bleedings” designates any of the following clinical situations: • bleeding associated with a fall in hemoglobin of 2 g per deciliter or more, • bleeding that led to a transfusion of 2 or more units of packed red cells or whole blood (a red cell unit being defined as the quantity of red cells obtained from or corresponding to approximately 500 ml of whole blood), • bleeding that involved a critical organ (intracranial, intraocular, intraspinal, retroperitoneal or pericardial), • bleeding that contributed to death.
as §1
The principal safety outcome is any clinically relevant bleeding as classified by the CIAC (i.e. major bleeding and other clinically relevant non-major bleeding).
Bleeding analyses are also performed on the—All-randomized—population. Other safety analyses are performed on the—All-treated—population.
Rates of clinically relevant bleedings are calculated in each treatment group at 3 months (99 days) and 6 months (190 days) and compared between treatment groups using a Mantel-Haenszel chi-square stratified on intended treatment duration. Cumulative incidences of clinically relevant bleedings during the combined 3-month and 6-month period and up to the end of study are described by treatment group using the Kaplan Meier method.

[4] = test system: patients with symptomatic pulmonary embolism with or without symptomatic deep venous thrombosis; experiment: CASSIOPEA (EFC6034) phase III clinical trial: deaths; format: in vivo, human; conditions: overall
Description: as §1

[5] = test system: patients with symptomatic pulmonary embolism with or without symptomatic deep venous thrombosis; experiment: CASSIOPEA (EFC6034) phase III clinical trial: benefit-risk assessment (PE, DVT or major bleeding composite); format: in vivo, human; conditions: Randomized population
Description: Tables 13 and 14 show the incidence of pulmonary embolism, deep venous thrombosis or major bleedings (composite endpoint) in the randomized population in the treatment phase (3-month or 6-month treatment with idrabiotaparinux) and up to the end of the study (assessment at 12 months).

[6] = Randomized population in the 6-month stratum
[7] = Randomized population, All patients
[8] = Randomized population, Patients with VKA beyond D99/D190
[9] = Randomized population, Patients with no VKA beyond D99/D190
[10] = Randomized population, or death for which PE could not be ruled out
[11] = combined 3-month and 6-month period
[12] = combined 3-month and 6-month periods, time-to-event analysis (Kaplan-Meier)
[13] = treatment period plus 3 to 6-month post-treatment follow-up (up to end of study)
[14] = Cox proportional hazards model, stratified

CO[C@H]1O[C@H](COS(=O)(=O)O)[C@@H](O[C@@H]2O[C@@H](C(=O)O)[C@@H](O[C@H]3O[C@H](COS(=O)(=O)O)[C@@H](O[C@@H]4O[C@H](C(=O)O)[C@@H](O[C@H]5O[C@H](COS(=O)(=O)O)[C@@H](OC)[C@H](OC)[C@H]5OC)[C@H](OC)[C@H]4OC)[C@H](OS(=O)(=O)O)[C@H]3OS(=O)(=O)O)[C@H](OC)[C@H]2OC)[C@H](OS(=O)(=O)O)[C@H]1OS(=O)(=O)O [idraparinux]
Outcome in patients with pulmonary embolism [1]: apparent failure

CO[C@H]1O[C@H](COS(=O)(=O)O)[C@@H](O[C@@H]2O[C@@H](C(=O)O)[C@@H](O[C@H]3O[C@H](COS(=O)(=O)O)[C@@H](O[C@@H]4O[C@H](C(=O)O)[C@@H](O[C@H]5O[C@H](COS(=O)(=O)O)[C@@H](OC)[C@H](OC)[C@H]5NC(=O)CCCCCNC(=O)CCCC[C@@H]5SC[C@@H]6NC(=O)N[C@@H]65)[C@H](OC)[C@H]4OC)[C@H](OS(=O)(=O)O)[C@H]3OS(=O)(=O)O)[C@H](OC)[C@H]2OC)[C@H](OS(=O)(=O)O)[C@H]1OS(=O)(=O)O [Idrabiotaparinux, idrabiotaparinux]
DVT only within 190 days from randomization: Patients with event ([2]; 6-month stratum): 7 (0.6%) n (%)
Non-fatal PE within 190 days from randomization: Patients with event ([2]; 6-month stratum): 9 (0.7%) n (%)
Symptomatic recurrent PE/DVT (fatal or not) from randomization to end of study: Patients with event ([2]; 6-month stratum, All patients): 37 (2.9%) n (%)
Symptomatic recurrent PE/DVT (fatal or not) from randomization to end of study: Patients with event ([2]; 6-month stratum, Patients with VKA beyond D190): 10 (3.2%) n (%)
Symptomatic recurrent PE/DVT (fatal or not) from randomization to end of study: Patients with event ([2]; 6-month stratum, Patients with no VKA beyond D190): 27 (2.8%) n (%)
Reducing the risk of symptomatic recurrent PE/DVT up to Day 190 (non-inferiority) ([2]; 6-month stratum, non-inferiority margin 2.0): at least as effective as warfarin
Fatal PE within 190 days from randomization: Patients with event ([2]; 6-month stratum, or death for which PE could not be ruled out): 13 (1.0%) n (%)
Patients who experienced DVT up to Day 190 ([2]; 6-month stratum, up to Day 190): 0.6%
DVT only up to the end of study: Patients with event ([2]; Randomized population): 10 (0.6%) n (%)
DVT only within 99 days from randomization: Patients with event ([2]; Randomized population): 5 (0.3%) n (%)
Non-fatal PE up to the end of study: Patients with event ([2]; Randomized population): 16 (1.0%) n (%)
Non-fatal PE within 99 days from randomization: Patients with event ([2]; Randomized population): 13 (0.8%) n (%)
Symptomatic recurrent PE/DVT (fatal or not) within 190 days from randomization: Patients with event [2, 6]: 29 (2.3%) n (%)
Symptomatic recurrent PE/DVT within 190 days: Idrabiotaparinux vs. Warfarin odds ratio [2, 6]: 0.80
Symptomatic recurrent PE/DVT (fatal or not) from D100/D191 to end of study: Patients with event [2, 7]: 9 (0.6%) n (%)
Symptomatic recurrent PE/DVT (fatal or not) from randomization to end of study: Patients with event [2, 7]: 48 (3.0%) n (%)
Symptomatic recurrent PE/DVT within 99 days: Idrabiotaparinux vs. Warfarin odds ratio ([2]; Randomized population, Mantel-Haenszel, stratified on intended treatment duration): 0.79
Symptomatic recurrent PE/DVT (fatal or not) from D100/D191 to end of study: Patients with event [2, 8]: 4 (1.0%) n (%)
Symptomatic recurrent PE/DVT (fatal or not) from randomization to end of study: Patients with event [2, 8]: 12 (3.1%) n (%)
Symptomatic recurrent PE/DVT (fatal or not) from D100/D191 to end of study: Patients with event [2, 9]: 5 (0.5%) n (%)
Symptomatic recurrent PE/DVT (fatal or not) from randomization to end of study: Patients with event [2, 9]: 36 (3.0%) n (%)
Fatal PE up to the end of study: Patients with event [2, 10]: 22 (1.4%) n (%)
Fatal PE within 99 days from randomization: Patients with event [2, 10]: 16 (1.0%) n (%)
Symptomatic recurrent PE/DVT (fatal or not) within 99 days from randomization: Patients with event ([2]; Randomized population, within 99 days): 34 (2.1%) n (%)
Reducing the risk of symptomatic recurrent PE/DVT up to Day 99 (non-inferiority) ([2]; all randomized population, non-inferiority margin 2.0): at least as effective as warfarin
Hazard ratio, symptomatic recurrent PE/DVT [2, 11]: 0.77
Cumulative incidence of symptomatic recurrent PE/DVT at Day 99 [2, 12]: 2.2%
Cumulative incidence of symptomatic recurrent PE/DVT at Day 190 [2, 12]: 2.6%
Cumulative incidence rate of symptomatic recurrent PE/DVT at Day 360 [2, 13]: 3.1%
Patients who experienced DVT up to Day 99 ([2]; up to Day 99): 0.3%
Patients who experienced DVT up to the end of study ([2]; up to the end of study): 0.6%
Patients who experienced non-fatal PE up to the end of study ([2]; up to the end of study): 1.0%
Hazard ratio, symptomatic recurrent PE/DVT ([2]; up to the end of the study): 0.49
Risk reduction in the occurrence of symptomatic recurrent PE/DVT ([2]; up to the end of the study, vs warfarin): 51%
Any clinically relevant bleeding within 190 days: Idrabiotaparinux vs. Warfarin odds ratio ([3]; 6-month stratum): 0.81
Clinically relevant bleedings up to Day 190 ([3]; 6-month stratum): 6.6%
Fatal bleeding within 190 days from randomization: Patients with event ([3]; 6-month stratum): 7 (0.6%) n (%)
Fatal bleeding within 190 days: Idrabiotaparinux to Warfarin odds ratio (95% CI) ([3]; 6-month stratum): 1.40 (0.44 to 4.42)
Intracranial haemorrhage (fatal or not) within 190 days from randomization: Patients with event ([3]; 6-month stratum): 8 (0.6%) n (%)
Intracranial haemorrhage (fatal or not) within 190 days: Idrabiotaparinux to Warfarin odds ratio (95% CI) ([3]; 6-month stratum): 1.33 (0.46 to 3.85)
Major bleeding within 190 days from randomization: Patients with event ([3]; 6-month stratum): 24 (1.9%) n (%)
Major bleeding within 190 days: Idrabiotaparinux to Warfarin odds ratio (95% CI) ([3]; 6-month stratum): 0.66 (0.39 to 1.11)
Patients who experienced a major bleeding up to Day 190 ([3]; 6-month stratum): 1.9%
Any clinically relevant bleeding within 99 days from randomization: Patients with event ([3]; Randomized population): 72 (4.5%) n (%)
Fatal bleeding within 99 days from randomization: Patients with event ([3]; Randomized population): 3 (0.2%) n (%)
Fatal bleeding within 99 days: Idrabiotaparinux to Warfarin odds ratio (95% CI) ([3]; Randomized population): 0.50 (0.13 to 2.01)
Intracranial haemorrhage (fatal or not) within 99 days from randomization: Patients with event ([3]; Randomized population): 4 (0.3%) n (%)
Intracranial haemorrhage (fatal or not) within 99 days: Idrabiotaparinux to Warfarin odds ratio (95% CI) ([3]; Randomized population): 0.57 (0.17 to 1.96)
Major bleeding within 99 days from randomization: Patients with event ([3]; Randomized population): 20 (1.3%) n (%)
Major bleeding within 99 days: Idrabiotaparinux to Warfarin odds ratio (95% CI) ([3]; Randomized population): 0.51 (0.30 to 0.88)
Any clinically relevant bleeding within 190 days from randomization: Patients with event [3, 6]: 84 (6.6%) n (%)
Any clinically relevant bleeding within 99 days: Idrabiotaparinux vs. Warfarin odds ratio ([3]; Randomized population, Mantel-Haenszel, stratified): 0.67
Major bleeding within 99 days: Idrabiotaparinux to Warfarin odds ratio (95% CI) ([3]; Randomized population, listed as idrabiotaparinux): 0.51
Hazard ratio, clinically relevant bleeding [3, 11]: 0.70
Cumulative incidence of clinically relevant bleeding at Day 99 [3, 12]: 4.6%
Cumulative incidence of clinically relevant bleeding at Day 190 [3, 12]: 6.6%
Cumulative incidence rate of clinically relevant bleeding at Day 360 [3, 13]: 8.3%
Incidence of clinically relevant bleeding up to Day 99 ([3]; up to Day 99): 4.5%
Patients who experienced a major bleeding up to Day 99 ([3]; up to Day 99): 1.3%
Hazard ratio, clinically relevant bleeding ([3]; up to the end of study): 0.79
Patients who died on study [4]: 5.9%
PE, DVT or major bleeding in the combined 3-month and 6-month period: Idrabiotaparinux vs. Warfarin Odds ratio [5, 14]: 0.66
PE, DVT or major bleeding up to the end of study: Idrabiotaparinux vs. Warfarin Odds ratio [5, 14]: 0.54
PE, DVT or major bleeding in the combined 3-month and 6-month period: Patients with event ([5]; composite endpoint): 65 (4.1%) n (%)
PE, DVT or major bleeding up to the end of study: Patients with event ([5]; composite endpoint): 82 (5.1%) n (%)

Reference: patent US20130316965A1, “IDRABI[…] THE TREATMENT OF PULMONARY EMBOLISM AND FOR THE SECONDARY PREVENTION OF VENOUS THRO[…]” (priority 2011, published 2013)
